Data from PubChem BioAssay (NCI).
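Protocol summary: plate cells (96-well), add compound at 5 concentrations, incubate 48 h, interpolate endpoints linearly. The concentration for 50% growth inhibition is given as GI50. TGI is the concentration that stops growth completely.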

How the values were obtained:
Assay in all cases: DTP human tumour cell line panel, 48 h; in the data active = GI50 below about 0.43 µM; inactive = the rest
OVCAR-8 ovarian = tested on: OVCAR-8 ovarian
MCF7 breast = tested on: MCF7 breast
A498 renal = tested on: A498 renal
CCRF-CEM leukemia = tested on: CCRF-CEM leukemia
HOP-92 NSCLC = tested on: HOP-92 NSCLC
RXF 393 renal = tested on: RXF 393 renal
HCT-116 colon = tested on: HCT-116 colon
HL-60(TB) leukemia = tested on: HL-60(TB) leukemia
TK-10 renal = tested on: TK-10 renal
HT29 colon = tested on: HT29 colon
OVCAR-3 ovarian = tested on: OVCAR-3 ovarian
RPMI-8226 leukemia = tested on: RPMI-8226 leukemia
BT-549 breast = tested on: BT-549 breast
OVCAR-4 ovarian = tested on: OVCAR-4 ovarian
HCC-2998 colon = tested on: HCC-2998 colon
SF-268 CNS = tested on: SF-268 CNS
UACC-257 melanoma = tested on: UACC-257 melanoma
ACHN renal = tested on: ACHN renal
HCT-15 colon = tested on: HCT-15 colon
SK-MEL-28 melanoma = tested on: SK-MEL-28 melanoma
NCI-H460 lung = tested on: NCI-H460 lung
KM12 colon = tested on: KM12 colon
SK-OV-3 ovarian = tested on: SK-OV-3 ovarian
OVCAR-5 ovarian = tested on: OVCAR-5 ovarian
IGROV1 ovarian = tested on: IGROV1 ovarian
NCI-H226 lung = tested on: NCI-H226 lung
COLO 205 colon = tested on: COLO 205 colon
MOLT-4 leukemia = tested on: MOLT-4 leukemia
HS 578T breast = tested on: HS 578T breast
SK-MEL-5 melanoma = tested on: SK-MEL-5 melanoma
SW-620 colon = tested on: SW-620 colon
SR leukemia = tested on: SR leukemia
MDA-MB-468 breast = tested on: MDA-MB-468 breast
NCI-H522 lung = tested on: NCI-H522 lung
UACC-62 melanoma = tested on: UACC-62 melanoma
LOX IMVI melanoma = tested on: LOX IMVI melanoma
M14 melanoma = tested on: M14 melanoma
SNB-19 CNS = tested on: SNB-19 CNS
EKVX NSCLC = tested on: EKVX NSCLC
SN12C renal = tested on: SN12C renal
T-47D breast = tested on: T-47D breast
DU-145 prostate = tested on: DU-145 prostate
786-0 renal = tested on: 786-0 renal
CAKI-1 renal = tested on: CAKI-1 renal
NCI/ADR-RES ovarian = tested on: NCI/ADR-RES ovarian
MALME-3M melanoma = tested on: MALME-3M melanoma
SF-295 CNS = tested on: SF-295 CNS
K-562 leukemia = tested on: K-562 leukemia
NCI-H23 lung = tested on: NCI-H23 lung
A549 NSCLC = tested on: A549 NSCLC
U251 CNS = tested on: U251 CNS
HOP-62 NSCLC = tested on: HOP-62 NSCLC
PC-3 prostate = tested on: PC-3 prostate

CC(=O)Nc1ccc(-n2cnc3cc(-c4ccc(O)cc4)ccc32)cc1F
4.68 µM: TGI (MDA-MB-468 breast)
3.85 µM: TGI (HL-60(TB) leukemia)
16.4 µM: TGI (RPMI-8226 leukemia)
active: GI50 (SR leukemia) 0.377 µM
> 100 µM: TGI (OVCAR-8 ovarian) | TGI (MCF7 breast) | TGI (A498 renal) | TGI (CCRF-CEM leukemia) | TGI (HOP-92 NSCLC) | TGI (HCT-116 colon) | TGI (TK-10 renal) | TGI (HT29 colon) | TGI (OVCAR-3 ovarian) | TGI (BT-549 breast) | TGI (OVCAR-4 ovarian) | TGI (HCC-2998 colon) | TGI (SF-268 CNS) | TGI (UACC-257 melanoma) | TGI (ACHN renal) | TGI (HCT-15 colon) | TGI (SK-MEL-28 melanoma) | TGI (NCI-H460 lung) | TGI (KM12 colon) | TGI (SK-OV-3 ovarian) | TGI (OVCAR-5 ovarian) | TGI (IGROV1 ovarian) | TGI (NCI-H226 lung) | TGI (COLO 205 colon) | TGI (MOLT-4 leukemia) | TGI (HS 578T breast) | TGI (SK-MEL-5 melanoma) | TGI (SW-620 colon) | TGI (UACC-62 melanoma) | TGI (LOX IMVI melanoma) | TGI (M14 melanoma) | TGI (SNB-19 CNS) | TGI (EKVX NSCLC) | TGI (SN12C renal) | TGI (T-47D breast) | TGI (DU-145 prostate) | TGI (786-0 renal) | TGI (CAKI-1 renal) | TGI (NCI/ADR-RES ovarian) | TGI (MALME-3M melanoma) | TGI (SF-295 CNS) | TGI (K-562 leukemia) | TGI (NCI-H23 lung) | TGI (A549 NSCLC) | TGI (U251 CNS) | TGI (HOP-62 NSCLC) | TGI (PC-3 prostate)
27 µM: TGI (SR leukemia)
inactive: GI50 (OVCAR-8 ovarian) 3.48 µM | GI50 (MCF7 breast) 2.45 µM | GI50 (A498 renal) > 100 µM | GI50 (CCRF-CEM leukemia) 3.01 µM | GI50 (HOP-92 NSCLC) 23.2 µM | GI50 (RXF 393 renal) 1.94 µM | GI50 (HCT-116 colon) 4.21 µM | GI50 (HL-60(TB) leukemia) 1.23 µM | GI50 (TK-10 renal) 49.5 µM | GI50 (HT29 colon) 3.86 µM | GI50 (OVCAR-3 ovarian) 3.06 µM | GI50 (RPMI-8226 leukemia) 3.32 µM | GI50 (BT-549 breast) 27 µM | GI50 (OVCAR-4 ovarian) > 100 µM | GI50 (HCC-2998 colon) 5.6 µM | GI50 (SF-268 CNS) 9.66 µM | GI50 (UACC-257 melanoma) 21.5 µM | GI50 (ACHN renal) 6.33 µM | GI50 (HCT-15 colon) 0.831 µM | GI50 (SK-MEL-28 melanoma) 29.7 µM | GI50 (NCI-H460 lung) 3.38 µM | GI50 (KM12 colon) 3.22 µM | GI50 (SK-OV-3 ovarian) 5.05 µM | GI50 (OVCAR-5 ovarian) 6.22 µM | GI50 (IGROV1 ovarian) 6.21 µM | GI50 (NCI-H226 lung) 83.2 µM | GI50 (COLO 205 colon) 3.47 µM | GI50 (MOLT-4 leukemia) 2.67 µM | GI50 (HS 578T breast) 2.61 µM | GI50 (SK-MEL-5 melanoma) 4.09 µM | GI50 (SW-620 colon) 3.01 µM | GI50 (MDA-MB-468 breast) 1.25 µM | GI50 (NCI-H522 lung) 1.63 µM | GI50 (UACC-62 melanoma) 2.55 µM | GI50 (LOX IMVI melanoma) 6.43 µM | GI50 (M14 melanoma) 3.39 µM | GI50 (SNB-19 CNS) 4.73 µM | GI50 (EKVX NSCLC) 6.04 µM | GI50 (SN12C renal) 5.8 µM | GI50 (T-47D breast) 4.02 µM | GI50 (DU-145 prostate) 4.33 µM | GI50 (786-0 renal) 6.8 µM | GI50 (CAKI-1 renal) > 100 µM | GI50 (NCI/ADR-RES ovarian) 2.78 µM | GI50 (MALME-3M melanoma) 3.35 µM | GI50 (SF-295 CNS) 3.34 µM | GI50 (K-562 leukemia) 0.496 µM | GI50 (NCI-H23 lung) 4.77 µM | GI50 (A549 NSCLC) 4.77 µM | GI50 (U251 CNS) 3.19 µM | GI50 (HOP-62 NSCLC) 4.53 µM | GI50 (PC-3 prostate) 3.66 µM
4.14 µM: TGI (NCI-H522 lung)
6.14 µM: TGI (RXF 393 renal)
